Experiments:
[1] = Inhibition of 20S proteosome beta 1 in human MOLT4 cells by ELISA
[2] = Inhibition of 20S proteosome beta 2 in human MOLT4 cells by ELISA
[3] = target: T1, Proteasome subunit beta type-1 (Mus musculus, UniProt O09061); assay: Inhibition of 20S proteosome beta 1 in mouse A20 cells by ELISA
T1 sequence (O09061 whole entry): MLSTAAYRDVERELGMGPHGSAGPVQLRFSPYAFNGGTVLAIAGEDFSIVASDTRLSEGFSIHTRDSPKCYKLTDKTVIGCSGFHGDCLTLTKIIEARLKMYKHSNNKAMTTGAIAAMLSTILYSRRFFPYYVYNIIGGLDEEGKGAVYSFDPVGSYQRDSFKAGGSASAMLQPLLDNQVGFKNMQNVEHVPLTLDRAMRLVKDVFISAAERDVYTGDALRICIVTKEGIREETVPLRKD

[4] = target: T2, Proteasome subunit beta type-1 (Homo sapiens, UniProt P20618); assay: Inhibition of 20S proteosome beta 1 in human MOLT4 cells by ELISA
T2 sequence (P20618 whole entry): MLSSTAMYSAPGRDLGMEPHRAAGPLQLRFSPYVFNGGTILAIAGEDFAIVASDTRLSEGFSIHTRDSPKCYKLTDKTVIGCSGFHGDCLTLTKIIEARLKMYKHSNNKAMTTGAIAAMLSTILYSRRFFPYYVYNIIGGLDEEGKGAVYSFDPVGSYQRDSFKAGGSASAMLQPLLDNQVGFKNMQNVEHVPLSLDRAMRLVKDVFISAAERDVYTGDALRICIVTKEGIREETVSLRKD

[5] = target: Proteasome subunit beta type-2 (Homo sapiens, UniProt P49721); assay: Inhibition of 20S proteosome beta 2 in human MOLT4 cells by ELISA
Proteasome subunit beta type-2, sequence (P49721 whole entry): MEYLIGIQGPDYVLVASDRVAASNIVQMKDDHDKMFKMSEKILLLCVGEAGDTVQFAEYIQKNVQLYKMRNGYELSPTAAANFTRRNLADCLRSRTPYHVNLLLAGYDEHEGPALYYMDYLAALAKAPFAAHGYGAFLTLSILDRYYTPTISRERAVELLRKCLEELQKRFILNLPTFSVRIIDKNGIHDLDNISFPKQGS

[6] = Inhibition of 20S proteosome beta 1 in mouse A20 cells by ELISA

| SMILES | IC50 [1] | IC50 [2] | IC50 [3] | IC50 [4] | IC50 [5] | IC50 [6] |
| --- | --- | --- | --- | --- | --- | --- |
| COc1ccc(C[C@H](NC(=O)[C@@H](C)NC(=O)[C@H]2CC[C@H](O)CC2)C(=O)N[C@@H](CC2=CCCC2)C(=O)[C@@]2(C)CO2)cc1 | > 25 µM | > 25 µM | – | – | – | – |
| CC(C)C[C@H](NC(=O)CN1CCCCCC1)C(=O)N[C@@H](Cc1ccccc1)C(=O)N[C@@H](Cc1ccccc1)C(=O)[C@@]1(C)CO1 | > 250 µM | – | > 250 µM | – | – | – |
| COc1ccc(C[C@H](NC(=O)[C@@H](C)NC(=O)[C@H]2CC[C@H](O)CC2)C(=O)N[C@@H](Cc2ccccc2)C(=O)[C@@]2(C)CO2)cc1 | – | – | – | > 25 µM | > 25 µM | – |
| Cc1ccc(CC[C@H](NC(=O)[C@H](Cc2ccccc2)NC(=O)[C@H](CC(C)C)NC(=O)CN2CCCCCC2)C(=O)[C@@]2(C)CO2)cc1 | > 25 µM | – | > 25 µM | – | 0.413 µM | – |
| COc1ccc([C@@H](O)[C@H](NC(=O)[C@H](C)NC(=O)CN2CCOCC2)C(=O)N[C@@H](CC2=CCCC2)C(=O)[C@@]2(C)CO2)cc1 [Kzr-616] | > 10.6 µM | – | – | – | – | > 25 µM |
